Results reported in patent publication US20220409578A1, “FUNCTIONALIZED 1,3-BENZENE DIOLS AND THEIR METHOD OF USE FOR THE TREATMENT OF RADIATION DERMATITIS AND OTHER SKIN DISORDERS” (KANNALIFE SCIENCES, INC., priority 2019, published 2022).
One block for each compound: values may come before it.

Tests used:
IL-8 = IL-8 release, nickel-induced allergy in human dermal microvascular endothelial cells (ELISA); assay type: cell-based; conditions: Homo sapiens, Endothelial cell; co-treatment with NiSO4, HDMECs; read-out: IC50 of IL-8 inhibition
Experimental: Dermal Microvascular endothelial cells of human origin were cultured in vitro using standard conditions (37° C., 95% v/v air, 5% v/v CO2). Human cells were selected as relevant to cell types within skin tissues for this development program. Cell culture methods are commonly used in non-clinical studies conducted on pharmaceutical products. […] Cells were cultured until the third and fourth passage and then acclimated for 24 hours before Nickel induction and dosing procedures. Cell treatment groups were identified using appropriate 96-well plates. The test and control articles were administered to medium containing 1 mM NiSO4 in triplicates. The negative control group received vehicle-only (0.1% v/v final) dose. A fixed 0.1 μL/well from 1000× stock dose volume was administered to 100 μL of media to each cell culture well on Day 2 and incubated for 6 hours at 37 degrees. These cell cultures were also utilized to determine the concentrations of test agent that were non-toxic after 24 hours of incubation.
Assay for Interleukin-8: Test material was applied in vitro for the ability to inhibit pro-inflammatory (IL-8) cytokine secretion by cultured HDMECs co-treated with Nickel (NiSO4). Clobetasol propionate was tested as positive control material for anti-inflammatory activity. The pro-inflammatory cytokine (IL-8) was quantified by enzyme-linked immunosorbent assay (ELISA) after inflammatory induction and incubation with test and control materials. Interleukin-8 levels in cell culture medium are markers of inflammation signaling by endothelial cells present in skin microvascular tissue in response to irritation. Interleukin-8 (IL-8) levels were assessed using BD Biosciences OptEIA™ Human IL-8 ELISA Set kit (Cat. No. 555244) and Reagent Set B (Cat. No. 550534) according to the manufacture's specifications. Absorbance was measured at 450 nm using plate reader and interleukin-8 levels were calculated from a standard curve.

[1] = Antioxidant capacity (ABTS/metmyoglobin assay); assay type: biochemical; conditions: OD 750 nm, 15 minutes after hydrogen peroxide
Experimental: Antioxidant capacity: The purpose of this study was to evaluate the overall antioxidant capacity of KLS-13022 for the ability to inhibit the oxidation of ABTS. (2,2′-Azino-di-[3-ethylbenzthiazoline sulphonate]) to ABTS.^+ by metmyoglobin. Ascorbic acid (Vitamin C) was used as positive antioxidant control in the assay. The testing involved the suppression of optical density (OD) at 750 nm to a degree, which is proportional to an effective oxidation inhibition. Neat solutions were prepared for materials formulated in HPLC-grade water (ascorbic acid) or 200-proof ethanol (KLS-13022). Serial dilutions were prepared for each material and mixed with metmyoglobin enzyme in assay buffer solution. All samples were compared to vehicle-only treated samples used as negative oxidation inhibition. Optical density changes at 750 nm were evaluated 15 minutes after addition of hydrogen peroxide to each sample. Average absorbance was calculated and plotted for each sample concentration. Effective antioxidant inhibition activity based on the change of absorbance of blank (vehicle-only) sample (no material added). […] The Antioxidant assay kit was obtained from Cayman Chemical Co. (Ann Arbor, Mich.). The assay consisted in the evaluation of the overall antioxidant capacity of test materials for the ability to inhibit the oxidation of ABTS. to ABTS.^+ by metmyoglobin. […]

[2] = system: human 3D cornea-like EPIOCULAR; experiment: Eye irritation, EPIOCULAR reconstructed cornea-like model, OECD 492 (MTT); assay type: cell-based; conditions: KLS-13022 up to 3% w/v in 60:40 ethanol:water; OECD 492
Experimental: Ocular irritancy: The purpose of this study was to evaluate any potential ocular irritation activity of KLS-13022 formulations compared to vehicle-only treated tissues in vitro on human 3D cornea-like EPIOCULAR by topical application according to OECD 492 protocol. Test formulations of KLS-13022 up to 3% w/v in 60:40 ethanol:water vehicle were prepared fresh before use. EPIOCULAR tissues were acclimated before treatments for 24 hours and later treated topically for 30 minutes with KLS-13022 (0.01, 0.1, 0.3 1, 3% w/v). Methyl acetate was used as positive eye irritant control. Tissue viability levels were measured by MTT reduction assay method after material treatments. The levels of tissue viability after each material treatment was compared to vehicle control group to determine any potential ocular irritation activity.
Average levels of tissue viability were calculated for each treatment group. According to OECD 492 protocol, predicted positive eye irritation activities were determined when obtaining <60% tissue viability. […] Primary cornea-like inserts were used from human origin and purchased from MatTek (Ashland, Mass.). […] Tissues were cultured with standard conditions (37° C., 95% v/v air, 5% v/v CO2) and acclimated for 18+3 hours before dosing procedures.

IC50 (IL-8): ~0.5 µM
SMILES: CCC(=O)O[C@]1(C(=O)CCl)[C@@H](C)C[C@H]2[C@@H]3CCC4=CC(=O)C=C[C@]4(C)[C@@]3(F)[C@@H](O)C[C@@]21C [Clobetasol propionate, reference compound]

EC50 [1]: 39.7 µM
SMILES: O=C1O[C@H]([C@@H](O)CO)C(O)=C1O [ascorbic acid, reference compound]

SMILES: COC(C)=O [methyl acetate, Methyl acetate, reference compound]
ocular irritancy potential [2]: strong eye irritant
